From patent publication US10875898B2, “Bioactive protein, use thereof and method for its production” (Koppert B.V., priority 2014, dated 2020)

Key:
Type in all cases: in vivo
Arabidopsis thaliana = test: growth of Arabidopsis; conditions: 0.01 μM drench every two days for one month
Experimental: FIG. 12: Effect of purified HYTLO1 on the growth of Arabidopsis (A), percentage seed germination of cucumber (B) and plantlet development of Lotus japonicus (C). A: Arabidopsis thaliana (Columbia-0: Col-0) seeds were sown in Levington's F2 compost plus sand (JFC Munro, Devon; http://www.jfcmonro.com) and chilled for 2 days at 4° C. Plants were grown under short-day conditions (10 h light) in a controlled environment chamber, at 22° C. during the day and 18° C. at night with 60% relative humidity for 5-6 weeks before transplanting. Ten ml of sterile solutions of HYTLO1 were drenched every two days at concentrations 0.072 μg/ml (0.01 μM) for one month in each pot containing 100 ml of soil and 1 Arabidopsis plant. Untreated plants were used as controls. B: Sterile cucumber seeds were placed on magenta box containing half-strength Murashige and Skoog salt (MS) medium (ICN Biomedicals) containing 1% agar and 1.5% sucrose, adjusted to pH 5.7, and vernalized for 2 days at 4° C. in the absence of light. A sterile solutions of HYTLO1 was added to the substrate at final concentration of 10^−8 M before the solidification of agar. C: The same concentration of HYTLO1 was used in the agarized medium used for the L. japonicus test. […]

tomato leaves = test: activation of tomato plant defense responses after leaf injection
Experimental: FIG. 5: Effect of purified HYTLO1 (5 μM) injected on tomato leaves after 48 hours under UV light. Fluorescence is due to accumulation of compounds related to plant defense response.
FIG. 6: Effect of purified HYTLO1 ([…]) on the activation of tomato plant defense responses. Leaves were injected with […] of the protein solution and analyzed after 24 and 48 hours for the production of: (A) anion superoxide (XTT assay, mg p.s.=milligram of dry weight), (B) SOD activity (U/mg proteins), (C) ROOH peroxide accumulation (FOX1 assay), (D) LOX activity, (E) phytoalexin rishitin accumulation (g f.w.=gram of leaf fresh weight). Values are means+S.E. Methods used are the followings. Lyophilized plant tissues (10 mg) from HYTLO1-injected and -non injected tomato leaves were collected at different time points after inoculation (from 6 to 48 h) and homogenized. Anion superoxide was detected by measuring the reduction of 2,3-bis(2-methoxy-4-nitro-5-sulfophenyl)-5-[(phenylamino) carbonyl]-2H-tetrazolium hydroxide (XTT) to formazan, according to Sutherland, M. W., and B. A. Learmonth, 1997, Free Radical Research, 27:283-289, with modifications reported by Castoria, R., et al., 2003, Phytopathology, 93:564-572. Absorbance at 490 nm was measured in a microplate reader. XTT levels were expressed as mean absorbance values mg-1±standard errors. The activities of SOD, pH 7.8 and 10.0 (EC 1.15.1.1) and LOX enzymes (EC 1.13.11.12) were quantified as described by Reverberi M, et al., 2005, Free Radical Research, 39:637-647. Total hydroperoxides (ROOH) were detected by using the FOX spectrophotometric assay by monitoring the oxidation of xylenol orange at 560 nm (Ferrous ion oxidation xylenol orange: FOX-1) (Banerjee D, et al., 2003, Clinica Chimica Acta, 337:147-152). Quantification of the phytoalexins rishitin was performed by treating the leaf samples with methylene chloride (2 ml) in the presence of 100 mg of BHT. The tubes were left in a fume hood for 15/20 minutes and occasionally shaken. The extracts were filtered on filter paper Whatmann 3 MM and dried under nitrogen flow. Rishitin was quantified by GC-MS as described in Fanelli et al., 1992, Natural Toxins 1: 136-146.
FIG. 7: Effect of purified HYTLO1 on the activation of tomato plant defense responses. Leaves were injected with HYTLO1 at the indicated concentrations and analyzed after 48 hours by Real Time PCR for the accumulation of PR (Pathogenesis-Related)-proteins PR1, PR2 and PIN2 RNA (for methods see Tucci M., et al., 2011, Molecular Plant Pathology, 12:341-354) Values indicated the n. of fold increase vs. untreated control.
We analyzed the plant biochemical reaction to HYTLO1, which resulted stimulatory for the formation of the superoxide anion and hydrogen peroxide, for anion superoxide dismutase (SOD) and LOX activity, and the accumulation of the phytoalexin rishitin (FIG. 6).

tomato = tomato root development (seeds, cuttings)
Experimental: FIG. 9: Effect of purified HYTLO1 application on tomato plant and root development. Tomato roots (left) and tomato cuttings (right) were dipped in a HYTLO1 solution of 0.018 μM.
In order to investigate the effect of HYTLO1 on the development of plants, either at the level of seed germination, germling formation and survival, root formation, stem elongation and thickness, foliar development, as well as general plant size, various experiments were performed with the purified protein. […] The protein clearly stimulated rhizogenesis on different plants. […] Experiments on plants were performed in vivo by watering and spraying tomato plants with a HYTLO1 0.01 μM solution as described in the legend of FIG. 10. In these experiments, the effect of HYTLO1 was also compared with that of the commercial biocontrol strain T. harzianum T22 (applied as spore suspension according the typical application rate of commercial products) and that of the germinating hormone 1-naphthaleneacetic acid (GERMON E—produced by L. Gobbi, Italy) (applied at the typical application rate of commercial products). Applications were made once per week for one month by watering the tomato plants. Results, expressed in terms of plant height and length, root length and weight, number of leaves, stem diameter and weight, are combined and shown in FIG. 10 and FIG. 11.

[1] = 0.15, 2.5, 5.0 mM, 24 and 48 hours

What does the source list for “HYTLO1: about 7 KDa Type II hydrophobin protein from Trichoderma longibrachiatum strain MK1, 71 aa, SEQ ID NO: 1”?
growth promotion effect (Arabidopsis thaliana): confirmed; accumulation of fluorescent compounds under UV light (tomato leaves; 5 μM injected on tomato leaves, after 48 hours): accumulation of fluorescent compounds; LOX activity (tomato leaves; [1]): stimulatory; accumulation of the phytoalexin rishitin (tomato leaves; [1]): stimulatory; anion superoxide dismutase (SOD) activity (tomato leaves; [1]): stimulatory; formation of hydrogen peroxide (ROOH, FOX1 assay) (tomato leaves; [1]): stimulatory; formation of the superoxide anion (XTT assay) (tomato leaves; [1]): stimulatory; defense responses in leaves distant from the site of application (tomato leaves; tomato leaf injection): systemic effect; activation of defense-related genes PR1, PR2 and PIN1 (RT-PCR) (tomato leaves; tomato leaves, 48 hours): induced the activation; concentration promoting root growth and development (tomato; assays on cuttings): ≥ 0.31 µM; de novo root formation on tomato cuttings (tomato; cuttings dipped in 0.075 and 0.018 μM, after 15 days, no roots in controls): formed de novo roots; root apparatus of plantlets vs untreated control (tomato; tomato seeds germinated with HYTLO1 10^−6 to 10^−9 M, data not shown): more than double
